# Measurements published in patent US8287862B2, “Multidrug resistance-associated polypeptide” (Millennium Pharmaceuticals, Inc., priority 1997, dated 2012).
# Key:
# [1] = test system: MCF-7 human breast adenocarcinoma cell line; details: adriamycin-selected MDR MCF-7 vs parental MCF-7; cited from earlier work
# MRP-β host cells = details: versus source or control cells; 16-24 hours in culture
# Method: To establish this survival advantage, triplicate cultures of MRP-β host cells, control cells and source cells (e.g., MCF-7 human breast adenocarcinoma cells) are generated in 24-well cell culture plates. Once the cultures have attained at least 80% confluency, lethal or sub-lethal amounts of a cytotoxin (e.g., adriamycin, bisantrene) are added to each well. After a sufficient period of time for cytotoxic effects to be manifested (e.g., 16-24 hours in culture), culture media comprising the cytotoxic drug are aspirated or otherwise removed, and cells are stained with a vital dye such as Trypan blue. Which commercially available vital dye is used in this procedure is a matter of choice; thus, sulforodoamine B (see Powell et al. (1990), U.S. Pat. No. 5,550,149) could be used in lieu of Trypan blue. The number of cells that remain viable (e.g., capable of excluding the dye) are counted using a hemocytometer, flow cytometer or other appropriate device.
SMILES,resistance of MDR derivative cell line relative to parental (wild-type) MCF-7 [1] [fold],survival of MRP-β expressing host cells on exposure to cytotoxin (MRP-β host cells)
COc1cccc2c1C(=O)c1c(O)c3c(c(O)c1C2=O)C[C@@](O)(C(=O)CO)C[C@@H]3O[C@H]1C[C@H](N)[C@H](O)[C@H](C)O1 [adriamycin],192,–
C(=N\NC1=NCCN1)/c1c2ccccc2c(/C=N/NC2=NCCN2)c2ccccc12 [bisantrene],–,surviving exposure to otherwise lethal amounts
